Laboratory results from US8808666B2, “Peptides that specifically target amyloid deposits” (University of Tennessee Research Foundation, priority 2010, dated 2014).
“Also recorded” adds a separate entry of the source.

Legend:
[1] = system: AFibα amyloid (Fibrinogen α); test: Biotinylated peptide overlay on amyloid-containing tissue sections; format: binding, human
Description: (§1) To catalog the range of amyloids that p31 and other peptides may bind, biotinylated peptides using the biotinyl-maleimide adduct which interacts specifically with the solitary Cys residue in the “leader” sequence were prepared. The peptides were overlaid onto formalin-fixed 6 μm-thick amyloid-containing tissue sections, incubated overnight and then the distribution visualized using standard immunohistochemical techniques.

ACEOT amyloid (ODAM) = test: as above; format: binding, human
Description: as §1

[2] = system: ALκ amyloid (κ light chains); test: as above; format: binding, human
Description: as §1

[3] = system: ALλ amyloid (λ light chains); test: as above; format: binding, human; conditions: overnight incubation, 6 μm-thick sections
Description: as §1

ALECT2 amyloid (Lectin2) = target: T1, ALECT2 amyloid (Lectin2) (Homo sapiens, UniProt O14960); test: as above; format: binding
T1 construct: from tissue; host or cells: formalin-fixed patient tissue sections
T1 sequence (O14960 19-151): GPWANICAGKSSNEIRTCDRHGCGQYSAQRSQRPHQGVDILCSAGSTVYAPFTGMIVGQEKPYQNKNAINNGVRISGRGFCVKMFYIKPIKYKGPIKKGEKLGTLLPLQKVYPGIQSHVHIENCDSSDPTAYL
Description: as §1

[4] = system: AA amyloid (Serum amyloid protein A); test: as above; format: binding; conditions: AA (human and canine)
Description: as §1

[5] = target: T2, ATTR amyloid (Transthyretin) (Homo sapiens, UniProt P02766); test: as above; format: binding
T2 construct: amyloid-containing tissue sections from patients with AL κ and λ amyloidosis, Alzheimer's disease, Transthyretin amyloidsis (ATTR); from tissue; host or cells: formalin-fixed patient tissue sections
Description: as §1

[6] = target: T3, AGal amyloid (Galectin 7) (Homo sapiens, UniProt P47929); test: as above; format: binding
T3 construct: from tissue; host or cells: formalin-fixed patient tissue sections
Description: as §1

[7] = target: T4, Aβ amyloid (Amyloid β peptide in Alzheimer's disease) (Homo sapiens, UniProt P05067); test: as above; format: binding
T4 construct: Amyloid β peptide in Alzheimer's; from tissue; host or cells: formalin-fixed tissue sections from Alzheimer's disease patients
Description: as §1

AA amyloid = target: T5, AA amyloid (Mus musculus, UniProt P05367); test: In vivo evaluation of radiolabeled peptides in TRIAD AA mouse model: SPECT imaging, biodistribution, autoradiography; conditions: for autoradiography: binding to AA amyloid in the necrotic renal papillae in vivo: mouse; for SPECT imaging of 125I-labeled fusion peptides in AA mice versus WT: mice with visceral AA amyloidosis
T5 construct: from tissue; host or cells: living TRIAD mice with systemic peripheral AA amyloidosis
T5 sequence (P05367 20-95 limits assumed): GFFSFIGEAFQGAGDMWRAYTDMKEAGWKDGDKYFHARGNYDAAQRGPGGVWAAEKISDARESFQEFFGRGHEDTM
Description: Based on the data obtained with protamines, in the Examples below, peptides that are positively charged are selected. They were labeled with radioiodine (I-125 and I-123) or technetium (Tc-99m) tested for in vivo binding to systemic AA amyloid deposits in the transgenic rapidly inducible amyloid disease (TRIAD) murine model by microSPECT or microPET imaging. The tissue biodistribution of each were assessed by gamma counting and the micro-distribution determined by autoradiography. Further, preliminary examinations were performed of the binding of biotinylated forms of these peptides with formalin-fixed, paraffin-embedded, amyloid-containing tissue sections from patients with AL κ and λ amyloidosis, Alzheimer's disease, Transthyretin amyloidsis (ATTR), serum amyloid protein A amyloidosis (AA), fibrinogen α amyloidosis (AFibα), calcifying epithelium odontogenic tumor amyloid (AODAM), galectin 7 amyloidosis (AGal), and Lect2 amyloidosis (ALECT2).
Two methods of radiolabeling the peptides were employed. For radioiodination, the direct oxidative iodination of tyrosyl groups on the peptides was employed. This method yields product with high specific activity (˜10-20 μCi/μg) of pure ^125I-labeled peptide. The second method involves radiolabeling the peptides with ^99mTc according to the method of Tran et al. (Bioconjugate Chem, 2007, 18, 549-558). The quality of each radiolabeled peptide was assessed by SDS-PAGE (15% poly-acrylamide) analyzed with quantitative phosphor imaging.
Each of the radiolabeled peptides were evaluated for its specific reactivity with amyloids in vivo, using the TRIAD AA mouse model, by using SPECT imaging, biodistribution measurements, and autoradiography. The reactivity of the radiolabeled peptides were assessed in transgenic rapidly inducible amyloid disease (TRIAD) mice with systemic peripheral AA amyloidosis as well as control (amyloid free) mice, by imaging the mice. The reactivity of the peptides were evaluated at 1 hour, 2 hours, 4 hours, 8 hours, 12 hours, or 24 hours post injection of the radiolabeled peptides. […] The other peptides also bound amyloids, but not as well as these.
In a dual-energy imaging experiment, peptide p31 was labeled with Tc^99m and SAP labeled with I^125 and the binding of each radiotracer was examined by using dual-energy microSPECT imaging in an individual TRIAD mouse with AA amyloidosis.
To examine the kinetics of the reactivity of peptides p48, p31, and p31-GGGY, dynamic PET imaging of I^124-labeled peptides p48, p31, p31-GGGY, and p50 (as a control) was performed in TRIAD mice with AA amyloidosis or wild type mice without amyloid. Finally, in a preliminary study, the binding of I^125-labeled SAP and Tc^99m-labeled peptide p31 was compared in the same TRIAD mouse with AA amyloidosis.

[8] = system: amyloid deposits in tissues from patients with light chain (AL) amyloidosis, Alzheimer's disease and other forms of amyloidosis; test: Biotinylated peptide overlay on formalin-fixed paraffin embedded patient tissues; format: binding, human; conditions: formalin-fixed paraffin embedded tissue sections
Description: The reactivity of biotinylated peptide p31 with amyloid deposits in formalin-fixed paraffin embedded tissues from patients with light chain (AL) amyloidosis, or Alzheimer's disease, and other forms of amyloidosis was examined.
as §1

[9] = system: ApoA2c amyloid-laden tissues; test: Ex vivo amyloid binding assay with homogenized tissue of ApoA2c mice; set-up: species or system mouse; conditions: for binding to ApoA2c amyloid-laden tissues in vitro: 125I-labeled, 1 h incubation, gamma counting
Description: (§2) The novel peptide, p5R+14, was radiolabeled with ^125I via an oxidation reaction with chloramine T. The labeled peptide was separated from free iodide using size exclusion chromatography on a Sephadex G25 column. For ex vivo amyloid binding assays, the ^125I-labeled p5 and p5R+14 peptides were added to 50 μL of homogenized tissue derived from wild type or amyloid laden ApoA2c mice. After a 1 h incubation, the amount of bound peptide (% of total) was assessed by gamma counting following centrifugation. For in vivo imaging, peptides p5 and p5R+14 were radiolabeled as above, and the radiopurities were determined by using SDS-PAGE and phosphor imaging.

ApoA2c amyloid = test: In vivo SPECT/CT imaging, biodistribution and micro-autoradiography in ApoA2c mice; set-up: species or system mouse; conditions: for SPECT/CT uptake in amyloid-laden tissues: 2 or 4 h pi; for biodistribution, tissue-to-muscle ratios, ApoA2c versus WT tissues: mouse, in vivo
Description: as §2
Approximately 200 μCi was injected iv in the lateral tail vein of ApoA2c mice (n=3). SPECT/CT images were acquired using the Inveon Tri-Modality System at 2 or 4 h pi. Organs were harvested and biodistribution of radiotracers was determined and recorded as % injected dose/gram. For comparisons between the peptides, tissue to muscle ratios were used. The tissues were then fixed in formalin, paraffin embedded, sectioned and exposed to photographic emulsion for ˜3 days.

AA amyloid deposits = target: T6, AA amyloid deposits (Mus musculus, UniProt P05367)
T6 sequence (P05367 20-95 limits assumed): T5 sequence (P05367 20-95 limits assumed)
Description: Following radioiodination, ^125I-labeled protamine (^125I-protamine) was administered to animals with severe systemic AA amyloidosis mice or to amyloid-free mice and allowed to circulate for 1 hour, 2 hours, 4 hours, 8 hours or 24 hours. At each time point high-resolution microSPECT/CT images were acquired and the tissue distribution of the radioactivity determined by gamma counting. Finally, 6 μm-thick tissue sections were prepared for autoradiography and histological evaluation of the micro-distribution of the radiolabeled peptides and amyloid deposits, respectively.

T3 sequence (P47929 whole entry): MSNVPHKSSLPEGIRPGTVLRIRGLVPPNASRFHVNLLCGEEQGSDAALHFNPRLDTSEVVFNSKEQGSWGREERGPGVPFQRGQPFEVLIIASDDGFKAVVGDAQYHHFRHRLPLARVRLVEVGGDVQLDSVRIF

CGGYSKAQKAQAKQAKQAQKAQKAQAKQAKQ (Heparin-binding peptide) [p31]
binding to amyloid in tissue sections [1]: specifically binds significantly | binding to amyloid in tissue sections (ACEOT amyloid (ODAM)): specifically binds significantly | binding to amyloid in tissue sections [2]: specifically binds significantly | binding to amyloid in tissue sections [3]: specifically binds significantly | binding to amyloid in tissue sections (ALECT2 amyloid (Lectin2)): specifically binds significantly | binding to amyloid in tissue sections [4]: specifically binds significantly | binding to amyloid in tissue sections [5]: specifically binds significantly | binding to amyloid in tissue sections [6]: specifically binds significantly | binding to amyloid in tissue sections [7]: specifically binds significantly | SPECT imaging of AA amyloid compared to SAP (AA amyloid; 99mTc-labeled peptide, 125I-labeled SAP, same mouse): as effective as SAP; also recorded: the same as that for SAP | SPECT distribution in AA mouse compared to WT control (AA amyloid; 125I-labeled): totally different | retention on AA amyloid in vivo (SPECT images and biodistribution) (AA amyloid; 24 h post-injection): remained bound to the AA amyloid in vivo | specific amyloid binding, ranking from in vivo imaging studies (AA amyloid; TRIAD AA mouse model, 1-24 hours post injection): best specific amyloid binding reagents | autoradiography: reactivity with murine pancreatic AA amyloid (AA amyloid; compared to SAP): greater reactivity with murine pancreatic AA amyloid as compared to SAP | biodistribution: amount of amyloid bound compared to SAP (AA amyloid; mice): binds more amyloid in vivo | autoradiography: binding to AA amyloid in the necrotic renal papillae in vivo (AA amyloid): binds AA amyloid in the necrotic renal papillae | binding of biotinylated peptide to tissue amyloid [8]: bound tissue amyloid from these patients with great affinity; also recorded: selectively bound to the amyloids in the tissue section

GGGYSKAQKAQAKQAKQAQKAQKAQAKQAKQ [p31-GGGY]
binding to ApoA2c amyloid-laden tissues in vitro [9]: able to bind | uptake of radiotracer in splenic amyloid in vivo (ApoA2c amyloid; ApoA2c mice): no uptake | SPECT/CT uptake in amyloid-laden tissues (ApoA2c amyloid; ApoA2c mice): lack of positive amyloid uptake | micro-autoradiography of tissues (ApoA2c amyloid; ApoA2c mice, listed as 125I-p5): only slight uptake | micro-autoradiography of tissues (ApoA2c amyloid; ApoA2c mice, listed as p5): scant amounts | biodistribution, tissue-to-muscle ratios, ApoA2c versus WT tissues (ApoA2c amyloid): not significantly higher

GGGYSRAQRAQARQARQAQRAQRAQARQARQAQRAQRAQARQARA [p31RGGGY + 14]
binding to ApoA2c amyloid-laden tissues in vitro [9]: able to bind | amount bound compared between p5R+14 and p5 ([9]; tissues of ApoA2c-amyloid mouse, listed as p5R+14): bound in greater amounts to all tissue samples as compared to p5; also recorded: higher binding in every tissue of interest | micro-autoradiography of tissues (ApoA2c amyloid; ApoA2c mice): localized to amyloid within the tissues | SPECT/CT uptake in amyloid-laden tissues (ApoA2c amyloid; ApoA2c mice, listed as 125I-p5R+14): uptake of ^125I-p5R+14 in amyloid-laden tissues such as the heart, liver, spleen and intestines; also recorded: cardiac uptake is not part of blood pool clearance | SPECT/CT uptake in amyloid-laden tissues (ApoA2c amyloid; ApoA2c mice, listed as p5R+14): bound cardiac amyloid deposits as well as those in the liver, spleen and intestines | biodistribution, tissue-to-muscle ratios, ApoA2c versus WT tissues (ApoA2c amyloid): clearly more p5R+14 binding to the diseased tissues

GGYSKAQKAQAKQAKQAQKAQKAQAKQAKQGGTFFYGGSRGKRNNFKTEEY [WAL14465]
SPECT imaging of 125I-labeled fusion peptides in AA mice versus WT (AA amyloid): retained by the amyloid deposits in the liver spleen and kidneys

RRLSYSRRRFCGGYSKAQKAQAKQA KQAQKAQKAQAKQAKQ (RRLSYSRRRFCGGYSKAQKAQAKQAKQAQKAQKAQAKQAKQ) [Syb3-p31, fusion of p31 with cell penetrating peptide]
SPECT imaging of 125I-labeled fusion peptides in AA mice versus WT (AA amyloid): retained by the amyloid deposits in the liver spleen and kidneys

SAP: Serum amyloid P component, the gold standard amyloid imaging agent; decameric, Mw ~250 kD [reference compound]
autoradiography: binding to AA amyloid in the necrotic renal papillae in vivo (AA amyloid): does not

YGRKKRRQRRRCGGYSKAQKAQAKQAKQAQKAQKAQAKQAKQ [TAT-p31, fusion of p31 with cell penetrating peptide]
SPECT imaging of 125I-labeled fusion peptides in AA mice versus WT (AA amyloid): retained by the amyloid deposits in the liver spleen and kidneys

protamine
microSPECT distribution in AA mice (AA amyloid deposits; AA mice): sequestered by amyloid deposits in the liver, kidney, pancreas and spleen | micro-autoradiography association with amyloid (AA amyloid deposits; AA mice, notably liver): preferentially associated with the AA amyloid | accumulation in organs or tissues of amyloid-free mice (AA amyloid deposits; amyloid-free mice): little or no specific accumulation | calculated tissue:muscle ratios, mice with AA versus amyloid-free mice (AA amyloid deposits; liver, kidney, pancreas, spleen, stomach, gamma counting): at least 2 fold | fate of radiolabel in control mice (AA amyloid deposits; mouse, in vivo): rapidly dehalogenated
